According to ChEMBL document CHEMBL6127056, “Novel mechanistic insights - A brand new Era for anti-HBV drugs” (Eur J Med Chem, 2024):
Converted amounts (≈) assume the structure as drawn. One block for each molecule: values may come before it. Residues, ends and D or L forms follow the SMILES beside them.

What was measured:
Hepatitis B virus [1] = assay: Antiviral activity against HBV infected in human HePAD38 cells assessed as reduction in viral replication by qPCR analysis; type: functional, organism-based
Hepatitis B virus [2] = assay: Antiviral activity against HBV infected in human HepG2-NTCP12 cells assessed as inhibition of viral replication; type: functional, organism-based
Hepatitis B virus [3] = assay: Antiviral activity against HBV infected in human Primary hepatocytes assessed as reduction in HBV DNA level measured after 16 days by ELISA; conditions: Hepatocyte, 384 h
[4] = biological target: Triosephosphate isomerase (Homo sapiens, UniProt P60174); assay: Inhibition of TPI1 (unknown origin)
Hepatitis B virus [5] = assay: Antiviral activity against Hepatitis B virus assessed as inhibition of HBV DNA replication; type: functional, organism-based
Hepatitis B virus [6] = assay: Antiviral activity against HBV infected in human HepG2.2.15 cells assessed as reduction in viral DNA levels incubated for 6 days by PCR analysis; type: functional, organism-based; conditions: HepG2.2.15, 144 h
[7] = Inhibition of HBV RNA polymerase; parameters: species or system Hepatitis B virus
Hepatitis B virus [8] = assay: Antiviral activity against HBV infected in human Primary hepatocyte assessed as reduction in HBV replication; type: functional, organism-based
[9] = biological target: T1, Hepatic sodium/bile acid cotransporter (Homo sapiens, UniProt Q14973); assay: Inhibition of NTCP (unknown origin)
T1 sequence (Q14973 whole entry): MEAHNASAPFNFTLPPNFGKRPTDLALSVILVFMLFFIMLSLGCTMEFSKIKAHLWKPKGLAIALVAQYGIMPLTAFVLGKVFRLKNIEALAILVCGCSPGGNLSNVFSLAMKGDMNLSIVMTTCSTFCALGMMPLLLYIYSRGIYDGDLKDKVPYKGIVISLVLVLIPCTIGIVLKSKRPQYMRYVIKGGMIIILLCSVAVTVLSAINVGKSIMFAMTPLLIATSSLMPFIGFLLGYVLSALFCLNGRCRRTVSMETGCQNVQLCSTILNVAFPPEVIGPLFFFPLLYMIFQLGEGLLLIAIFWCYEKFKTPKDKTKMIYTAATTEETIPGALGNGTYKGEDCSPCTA

[10] = biological target: T1, Hepatic sodium/bile acid cotransporter; assay: Inhibition of NTCP (unknown origin) stably transfected in HEK293 cells; type: cell-based
Hepatitis B virus [11] = assay: Antiviral activity against wild type HBV infected in HepG2.2.15 cells assessed as reduction in viral replication; type: functional, organism-based
Hepatitis B virus [12] = assay: Antiviral activity against HBV infected in human HepG2.2.15 cells; type: functional, organism-based
Hepatitis B virus [13] = assay: Antiviral activity against HBV infected in human HepG2-hNTCP cells assessed as reduction in HBV DNA replication by qRT-PCR analysis; type: functional, organism-based

Sequence of Triosephosphate isomerase (P60174 whole entry): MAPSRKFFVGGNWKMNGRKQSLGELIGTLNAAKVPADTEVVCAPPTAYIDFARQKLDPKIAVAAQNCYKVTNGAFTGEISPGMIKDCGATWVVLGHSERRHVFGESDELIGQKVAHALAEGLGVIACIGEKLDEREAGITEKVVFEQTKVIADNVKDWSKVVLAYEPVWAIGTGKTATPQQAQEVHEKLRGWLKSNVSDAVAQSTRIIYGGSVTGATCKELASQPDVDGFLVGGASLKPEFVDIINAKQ

SMILES: CN1[C@H](C(=O)Nc2ccc(F)c(Cl)c2)C[C@H](c2ncc(-c3cn(C)cn3)s2)NS1(=O)=O
EC50 (Hepatitis B virus [1]): 22 nM
EC50 (Hepatitis B virus [2]): 27 nM
EC50 (Hepatitis B virus [3]): 41 nM

SMILES: CCCCCCCc1cc(OC(=O)c2c(CCCCCCC)cc(O)cc2O[C@H]2O[C@@H](CO)[C@H](O)[C@@H](O)[C@@H]2O)cc(O)c1C(=O)O
IC50 [4]: 1700 nM

SMILES: O=C(Nc1ccc(F)c(Cl)c1)c1cc(S(=O)(=O)NC2CCCC2)cc2c1OCCO2
EC50 (Hepatitis B virus [6]): 500 nM

SMILES: CC[C@H](C)C[C@H](C)C(=O)O[C@]1(C)C(=O)c2c(cc(O)c3c2C[C@@H](O)C[C@H]3C)[C@@](C)(O)C1=O
IC50 [4]: 610 nM

SMILES: C[C@]12CCCC[C@@H]1CC[C@@H]1[C@@H]2CC[C@]2(C)[C@@H]([C@H](O)CCc3ccc(F)cc3)CC[C@@H]12
IC50 [4]: 10600 nM

SMILES: O=C(O)C1CC(OCCOc2ccc(-c3cc(=O)c4cccc(Cl)c4o3)cc2)C1 (configuration not stated)
EC50 (Hepatitis B virus [8]): 200 nM

SMILES: COc1cc([C@H]2c3cc4c(cc3[C@H](n3cc(CO[C@H]5CC[C@]6(C)[C@H]7CC=C8[C@@H]9CC(C)(C)CC[C@]9(C(=O)O)CC[C@@]8(C)[C@]7(C)CC[C@H]6C5(C)C)nn3)[C@H]3COC(=O)[C@H]23)OCO4)cc(OC)c1OC
IC50 [9]: 70 nM

SMILES: C=C(C)[C@@H]1CC[C@]2(C(=O)NCc3cn([C@H]4c5cc6c(cc5[C@H](c5cc(OC)c(OC)c(OC)c5)[C@H]5C(=O)OC[C@@H]54)OCO6)nn3)CC[C@@]3(C)[C@]4(C)CC[C@H]5C(C)(C)[C@@H](O)CC[C@]5(C)[C@H]4CC[C@]3(C)[C@@H]12
IC50 [9]: 790 nM

SMILES: CCC[C@@H]1NC(=O)[C@H](CC(C)C)N(C)C(=O)[C@H](CC(C)C)N(C)C(=O)CN(CCO)C(=O)[C@H](CC(C)C)N(C)C(=O)[C@@H](C)NC(=O)[C@H](CCC(N)=O)NC(=O)[C@H](CC(C)C)N(C)C(=O)[C@H](C(C)C)NC(=O)[C@H](CC(C)C)N(C)C(=O)CN(C)C1=O (HELM PEPTIDE1{[meL].[meL].[Nva].[Sar].[meL].V.[meL].Q.[dA].[meL].[O=C(CN(CCO)[*:1])[*:2]]}$PEPTIDE1,PEPTIDE1,1:R1-11:R2$$$V2.0)
IC50 [10]: 360 nM

SMILES: O=c1cc(-c2ccc(O)c(-c3c(O)cc(O)c4c(=O)cc(-c5ccc(O)cc5)oc34)c2)oc2cc(O)cc(O)c12 [AMENTOFLAVONE]
EC50 (Hepatitis B virus [12]): 48.6 µg/mL (≈ 90.3 µM)

SMILES: O=c1cc(-c2ccccc2)oc2cc(O)cc(O)c12 [CHRYSIN]
EC50 (Hepatitis B virus [8]): 22500 nM

SMILES: COc1cc2c(O[C@@H]3OC[C@](O)(CO[C@@H]4OC[C@@H](O)[C@H](O)[C@H]4O)[C@H]3O[C@@H]3OC[C@H](O)[C@H](O)[C@H]3O)c3c(c(-c4ccc5c(c4)OCO5)c2cc1OC)C(=O)OC3 [CILIATOSIDE A]
EC50 (Hepatitis B virus [8]): 3360 nM
EC50 (Hepatitis B virus [13]): 5130 nM

SMILES: O=c1ccc2cc3ccoc3cc2o1 [PSORALEN]
EC50 (Hepatitis B virus [11]): 63700 nM

More lines, now with the values ahead:

EC50 (Hepatitis B virus [5]): > 10000 nM
SMILES: O=C(NCc1ccc(-c2cccnc2)nc1)c1ccc2nccnc2c1

EC50 (Hepatitis B virus [5]): > 10000 nM
SMILES: O=C(OCc1ccc(-c2cnc3ccccc3n2)cc1)c1cccs1

EC50 (Hepatitis B virus [5]): > 10000 nM
SMILES: NCCCC(=O)NCc1nc(-c2cccc(F)c2)c(-c2ccccn2)[nH]1

IC50 [7]: 16700 nM
SMILES: CCOC(=O)c1cc(-c2cc(=O)oc3ccccc23)oc1C

EC50 (Hepatitis B virus [5]): > 10000 nM
SMILES: CCOC(=O)c1cc(-c2cc(C(=O)OCC)c3ccccc3n2)nc2ccccc12

EC50 (Hepatitis B virus [5]): 2100 nM
SMILES: C/C(=N\c1cccc(F)c1)c1c(C)cc(=O)n(O)c1O

EC50 (Hepatitis B virus [5]): 10000 nM
SMILES: Cc1nc(-c2c(-c3ccccc3)ncn2Cc2cccc3[nH]ccc23)c[nH]1

EC50 (Hepatitis B virus [11]): 42600 nM
SMILES: COc1cc(C[C@@H]2CO[C@@H](c3ccc(O)c(OC)c3)[C@@H]2CO)ccc1O [(-)-Lariciresinol]

IC50 [4]: 1890 nM
SMILES: C=C(c1ccc(C(=O)O)cc1)c1cc2c(cc1C)C(C)(C)CCC2(C)C [BEXAROTENE]

IC50 [7]: 279000 nM
SMILES: C[C@]12CC[C@@H]3c4ccc(OC(=O)c5ccccc5)cc4CC[C@H]3[C@@H]1CC[C@@H]2O [ESTRADIOL BENZOATE]

EC50 (Hepatitis B virus [12]): 56.4 µg/mL (≈ 97.2 µM)
SMILES: COc1ccc(-c2cc(=O)c3c(O)cc(O)c(-c4cc(-c5cc(=O)c6c(O)cc(OC)cc6o5)ccc4OC)c3o2)cc1 [SCIADOPITISIN]
